Results taken from patent publication US8772499B2, “TRPV3 modulators” (AbbVie Inc., priority 2011, dated 2014).
Like-named read-outs stand apart in the source and are kept apart here.

Assays:
human TRPV3 = biological target: T1, human TRPV3 (Homo sapiens, UniProt Q8NET8); test: In vitro antagonism of recombinant human TRPV3 activation (FLIPR Tetra calcium assay); type: cell-based; details: HEK293 cells stably expressing human TRPV3, agonist 2-APB at 80 μM
T1 construct: expressed in transfected cells
T1 sequence (Q8NET8 1-790): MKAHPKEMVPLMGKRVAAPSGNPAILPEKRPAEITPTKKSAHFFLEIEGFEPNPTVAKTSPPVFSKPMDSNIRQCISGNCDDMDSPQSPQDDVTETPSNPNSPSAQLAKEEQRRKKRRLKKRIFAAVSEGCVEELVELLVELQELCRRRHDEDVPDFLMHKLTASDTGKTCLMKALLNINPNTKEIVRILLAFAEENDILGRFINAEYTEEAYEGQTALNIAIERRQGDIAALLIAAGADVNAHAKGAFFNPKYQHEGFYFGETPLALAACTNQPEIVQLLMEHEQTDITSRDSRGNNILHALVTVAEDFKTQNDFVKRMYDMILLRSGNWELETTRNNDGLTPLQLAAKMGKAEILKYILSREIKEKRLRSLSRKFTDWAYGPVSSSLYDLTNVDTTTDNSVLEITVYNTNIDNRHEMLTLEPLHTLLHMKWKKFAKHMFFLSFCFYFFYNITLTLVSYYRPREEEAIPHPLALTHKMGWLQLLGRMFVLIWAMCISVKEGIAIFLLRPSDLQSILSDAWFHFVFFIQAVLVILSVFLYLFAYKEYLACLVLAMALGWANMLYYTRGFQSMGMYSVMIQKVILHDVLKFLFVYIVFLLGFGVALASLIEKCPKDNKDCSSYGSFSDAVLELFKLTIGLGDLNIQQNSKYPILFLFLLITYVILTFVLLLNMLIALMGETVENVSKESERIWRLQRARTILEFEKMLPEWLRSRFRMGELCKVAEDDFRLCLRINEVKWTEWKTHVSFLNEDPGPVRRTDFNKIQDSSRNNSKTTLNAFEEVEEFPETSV
In short: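 HEK293 cells stably expressing human TRPV3, loaded with Calcium-4 dye for 90–120 min, received compound in DPBS, then 80 μM 2-APB (EC80) 3 min later. Max-minus-min fluorescence expressed as % of 2-APB response without antagonist; IC50 values mostly averages of n≥2 runs.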

[1] = In vitro human microsomal stability assay; type: in vitro ADME; details: human, microsomes, 0.5 h, 0.5 μM, pH 7.4
In short: (§1)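 Compound is mixed with liver microsomes (human, or rat of the Sprague-Dawley strain). The mixture is then held at 37° C. in the presence of NADPH. Time-zero plates also receive NADPH.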

[2] = In vitro rat microsomal stability assay; type: in vitro ADME, rat (Sprague-Dawley); details: Sprague-Dawley, rat, microsomes, 0.5 h, 0.5 μM, pH 7.4
In short: as §1

[3] = actual measured value shown parenthetically, in most cases average of at least two runs, read-out: IC50
[4] = reported range, read-out: IC50 (range class)

| SMILES | IC50 (human TRPV3; [3]) [µM] | HUMAN MICROSOMAL STABILITY (% REMAINING AFTER 30 MINUTES) [1] [%] | RAT MICROSOMAL STABILITY (% REMAINING AFTER 30 MINUTES) [2] [%] | IC50 (human TRPV3; [4]) [µM] |
| --- | --- | --- | --- | --- |
| O=C1CC(c2cc(C(F)(F)F)ccn2)([C@@H](O)c2ccccn2)C1 [Example 278, 3-[(R)-hydroxy(pyridin-2-yl)methyl]-3-[4-(trifluoromethyl)pyridin-2-yl]-cyclobutanone] | 6.6 | 83 | >85 | – |
| CC(C)(C)OC(=O)N1CCC(C2(C(O)c3ccccn3)CCC2)CC1 (stereo not drawn) [Example 279, tert-butyl 4-{1-[hydroxy(pyridin-2-yl)methyl]cyclobutyl}piperidine-1-carboxylate] | 7.5 | 22 | <0.01 | – |
| OC(c1ccccn1)C1(C2CCC(C(F)(F)F)CC2)CCC1 (stereo not drawn) [Example 280, pyridin-2-yl{1-[4-(trifluoromethyl)cyclohexyl]cyclobutyl}methanol] | 1.95 | 9.0 | <0.01 | – |
| OC(c1ccccn1)C1(C2CCCOC2)CCC1 (stereo not drawn) [Example 281, pyridin-2-yl[1-(tetrahydro-2H-pyran-3-yl)cyclobutyl]methanol] | 7.69 | >85 | 0.054 | – |
| OC1CC(c2cc(C(F)(F)F)ccn2)(C(O)c2ccccn2)C1 [Example 282, cis-3-[(S)-hydroxy(pyridin-2-yl)methyl]-3-[4-(trifluoromethyl)pyridin-2-yl]cyclobutanol] | 0.74 | >85 | >85 | – |

The remaining lines, values ahead:

| IC50 (human TRPV3; [3]) [µM] | HUMAN MICROSOMAL STABILITY (% REMAINING AFTER 30 MINUTES) [1] [%] | RAT MICROSOMAL STABILITY (% REMAINING AFTER 30 MINUTES) [2] [%] | IC50 (human TRPV3; [4]) [µM] | SMILES |
| --- | --- | --- | --- | --- |
| > 20 | >85 | 16 | > 20 | OC(c1ccccn1)C1(C2CCOC2)CCC1 (stereo not drawn) [Example 284, pyridin-2-yl[1-(tetrahydrofuran-3-yl)cyclobutyl]methanol] |
| 1.47 | >85 | 70 | – | CC1(O)CC(c2cc(C(F)(F)F)ccn2)(C(O)c2ccccn2)C1 (stereo not drawn) [Example 286] |
| > 20 | 15 | <0.01 | > 20 | COc1ccc(C(O)C2(c3ccc(Cl)c(Cl)c3)CCC2)nc1 (stereo not drawn) [Example 287, [1-(3,4-dichlorophenyl)cyclobutyl](5-methoxypyridin-2-yl)methanol] |
| 14.6 | <0.01 | <0.01 | – | CC(=O)O[C@H](c1ccccn1)C1(c2ccc(OC(F)(F)F)cc2)CCC1 [Example 288, (S)-pyridin-2-yl{1-[4-(trifluoromethoxy)phenyl]cyclobutyl}methyl acetate] |
| > 20 | 4.2 | <0.01 | > 20 | COc1ccnc(C(O)C2(c3ccc(Cl)c(Cl)c3)CCC2)c1 (stereo not drawn) [Example 289, [1-(3,4-dichlorophenyl)cyclobutyl](4-methoxypyridin-2-yl)methanol] |
| 17.3 | >85 | 53 | – | Cc1cc(C(F)(F)F)cc(C2([C@@H](O)c3ccccn3)CC(=O)C2)n1 [Example 291, 3-[(R)-hydroxy(pyridin-2-yl)methyl]-3-[6-methyl-4-(trifluoromethyl)-pyridin-2-yl]cyclobutanone] |
| 0.56 | 19 | 5.4 | – | OC(c1ccccn1)C1(c2nc3ccc(Cl)cc3s2)CCC1 (stereo not drawn) [Example 292, [1-(6-chloro-1,3-benzothiazol-2-yl)cyclobutyl](pyridin-2-yl)methanol] |
